# Assay results published in ChEMBL document CHEMBL3739357, “Replacement of cardiotoxic aminopiperidine linker with piperazine moiety reduces cardiotoxicity? Mycobacterium tuberculosis novel bacterial topoisomerase inhibitors” (Bioorg Med Chem, 2016).
# Key:
# [1] = tested on: Mycobacterium tuberculosis; assay: Antimycobacterial activity against Mycobacterium tuberculosis H37Rv after 7 days by alamar blue assay; format: functional; conditions: 168 h
# [2] = Cytotoxicity against mouse RAW264.7 cells at 50 uM after 48 hrs by MTT assay; format: cell-based; conditions: read-out: INH
# [3] = target: DNA gyrase subunit A/DNA gyrase subunit B (Mycobacterium tuberculosis (strain ATCC 25618 / H37Rv), UniProt P9WG45+P9WG47); assay: Inhibition of Mycobacterium tuberculosis DNA gyrase assessed as inhibition of supercoiling activity using relaxed pBR322 plasmid as substrate after 30 mins
# Danio rerio [4] = organism: Danio rerio; assay: Toxicity in zebrafish embryo assessed as heart rate at 10 uM after 4 hrs; format: organism-based; conditions: in vivo
# Danio rerio [5] = organism: Danio rerio; assay: Toxicity in zebrafish embryo assessed as heart rate at 30 uM after 4 hrs; format: organism-based; conditions: in vivo
# Danio rerio [6] = organism: Danio rerio; assay: Toxicity in zebrafish embryo assessed as artrio-ventricular ratio at 30 uM after 4 hrs; format: organism-based; conditions: in vivo
# Danio rerio [7] = organism: Danio rerio; assay: Toxicity in zebrafish embryo assessed as artrio-ventricular ratio at 10 uM after 4 hrs; format: organism-based; conditions: in vivo
# DNA gyrase subunit A/DNA gyrase subunit B, sequence (P9WG45 whole entry): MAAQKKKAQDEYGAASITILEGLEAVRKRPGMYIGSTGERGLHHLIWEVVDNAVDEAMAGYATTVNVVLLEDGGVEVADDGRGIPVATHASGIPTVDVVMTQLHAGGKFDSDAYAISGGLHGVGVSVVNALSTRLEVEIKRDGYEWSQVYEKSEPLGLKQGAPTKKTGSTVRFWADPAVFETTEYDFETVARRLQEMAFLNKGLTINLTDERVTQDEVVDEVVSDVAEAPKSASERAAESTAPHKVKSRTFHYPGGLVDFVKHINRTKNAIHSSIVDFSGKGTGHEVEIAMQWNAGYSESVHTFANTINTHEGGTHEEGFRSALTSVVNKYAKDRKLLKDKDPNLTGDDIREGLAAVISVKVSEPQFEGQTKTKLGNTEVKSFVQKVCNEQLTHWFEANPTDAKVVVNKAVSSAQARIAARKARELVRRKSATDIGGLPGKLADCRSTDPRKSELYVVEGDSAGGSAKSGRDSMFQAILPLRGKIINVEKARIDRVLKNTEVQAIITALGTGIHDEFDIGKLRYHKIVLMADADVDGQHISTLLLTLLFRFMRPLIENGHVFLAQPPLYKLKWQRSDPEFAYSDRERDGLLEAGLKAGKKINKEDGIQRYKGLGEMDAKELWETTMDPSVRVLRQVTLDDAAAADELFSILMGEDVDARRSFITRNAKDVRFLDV
# DNA gyrase subunit A/DNA gyrase subunit B, sequence (P9WG47 whole entry): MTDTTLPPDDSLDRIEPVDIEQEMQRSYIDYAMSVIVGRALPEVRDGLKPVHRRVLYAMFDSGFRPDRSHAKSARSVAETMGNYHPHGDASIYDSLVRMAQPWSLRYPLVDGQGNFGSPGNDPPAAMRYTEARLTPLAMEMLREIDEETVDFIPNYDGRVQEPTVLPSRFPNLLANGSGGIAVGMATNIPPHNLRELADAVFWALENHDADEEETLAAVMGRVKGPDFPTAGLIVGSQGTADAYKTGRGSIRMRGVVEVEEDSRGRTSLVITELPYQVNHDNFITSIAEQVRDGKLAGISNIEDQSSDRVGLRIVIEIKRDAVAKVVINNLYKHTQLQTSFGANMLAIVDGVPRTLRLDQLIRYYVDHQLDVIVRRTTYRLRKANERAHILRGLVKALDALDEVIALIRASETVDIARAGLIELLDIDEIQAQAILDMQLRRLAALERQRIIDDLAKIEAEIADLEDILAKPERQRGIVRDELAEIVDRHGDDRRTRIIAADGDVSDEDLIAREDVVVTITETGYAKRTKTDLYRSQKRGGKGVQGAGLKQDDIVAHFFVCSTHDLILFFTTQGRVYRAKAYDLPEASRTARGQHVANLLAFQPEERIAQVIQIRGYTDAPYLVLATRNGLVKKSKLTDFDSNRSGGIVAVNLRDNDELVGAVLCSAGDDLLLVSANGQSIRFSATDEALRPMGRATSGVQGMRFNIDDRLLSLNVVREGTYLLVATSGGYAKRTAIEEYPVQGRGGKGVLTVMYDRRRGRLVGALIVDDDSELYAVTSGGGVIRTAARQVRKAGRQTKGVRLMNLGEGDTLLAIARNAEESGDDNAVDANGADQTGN
SMILES,MIC [1] [µM],"cytotoxicity at 48 h, 50 µM [2] [%]",IC50 [3] [µM],Activity (Danio rerio [4]),Activity (Danio rerio [5]),Activity (Danio rerio [6]),Activity (Danio rerio [7])
COc1cnc2ccc(=O)n(CCN3CCN(C(=O)Nc4ccc(F)cc4)CC3)c2c1,14.7,25.2,11.6,,,,
COc1cnc2ccc(=O)n(CCN3CCN(Cc4ccc(F)cc4)CC3)c2c1,15,26.4,0.91,,,,
COc1cnc2ccc(=O)n(CCN3CCN(Cc4ccc([N+](=O)[O-])cc4)CC3)c2c1,7.38,37.6,0.98,,,,
COc1cnc2ccc(=O)n(CCN3CCN(C(=O)NCc4ccc(Cl)cc4)CC3)c2c1,6.6,24.6,0.92,,,,
COc1cnc2ccc(=O)n(CCN3CCN(C(=S)Nc4ccc(C)cc4)CC3)c2c1,10.7,26.8,11.5,,,,
CC[C@@H](CO)NCCN[C@@H](CC)CO [ETHAMBUTOL],9.84,,,,,,
COc1cnc2ccc(=O)n(CCN3CCN(C(=O)Nc4ccc([N+](=O)[O-])cc4)CC3)c2c1,3.45,5.08,0.29,Toxic,Toxic,Toxic,Toxic
COc1cnc2ccc(=O)n(CCN3CCN(C(=S)Nc4ccc(Br)cc4)CC3)c2c1,3.8,1.06,0.49,,,,
COc1cnc2ccc(=O)n(CCN3CCN(C(=S)NCc4ccc(Cl)cc4)CC3)c2c1,4.31,24.9,0.95,,,,
COc1cnc2ccc(=O)n(CCN3CCN(Cc4ccccc4)CC3)c2c1,4.12,15,0.94,,,,
COc1cnc2ccc(=O)n(CCN3CCN(Cc4ccc(Br)cc4)CC3)c2c1,13.7,2.15,6.44,,,,
COc1cnc2ccc(=O)n(CCN3CCN(C(=S)Nc4ccc(Cl)cc4)CC3)c2c1,13.6,6.59,12.8,,,,
COc1cnc2ccc(=O)n(CCN3CCN(C(=O)Nc4ccc(C)cc4)CC3)c2c1,7.41,32.3,2.68,,,,
COc1cnc2ccc(=O)n(CCN3CCN(C(=S)Nc4ccc([N+](=O)[O-])cc4)CC3)c2c1,26.7,17.3,18.5,,,,
COc1ccc(CNC(=S)N2CCN(CCn3c(=O)ccc4ncc(OC)cc43)CC2)cc1,26.7,17.1,15.5,,,,
COc1cnc2ccc(=O)n(CCN3CCN(C(=O)Nc4ccc(C(C)=O)cc4)CC3)c2c1,26.9,18.6,19.4,,,,
COc1cnc2ccc(=O)n(CCN3CCN(C(=S)Nc4ccc(F)cc4)CC3)c2c1,14.2,21.6,14.7,,,,
COc1cnc2ccc(=O)n(CCN3CCN(C(=O)Nc4ccc(Cl)cc4)CC3)c2c1,7.06,27,0.32,,Toxic,Toxic,
COc1cnc2ccc(=O)n(CCN3CCN(Cc4ccc(Cl)cc4)CC3)c2c1,10.1,26.5,0.81,,,,
COc1c(N2C[C@@H]3CCCN[C@@H]3C2)c(F)cc2c(=O)c(C(=O)O)cn(C3CC3)c12 [MOXIFLOXACIN],2.4,,,,,,
COc1cnc2ccc(=O)n(CCN3CCN(C(=O)Nc4ccc(Br)cc4)CC3)c2c1,3.21,24.4,0.75,,,,
CO[C@@H]1[C@@H](OC(N)=O)[C@@H](O)[C@H](Oc2ccc3c(O)c(NC(=O)c4ccc(O)c(CC=C(C)C)c4)c(=O)oc3c2C)OC1(C)C [NOVOBIOCIN],> 200,19.3,,,,,
COc1cnc2ccc(=O)n(CCN3CCN(C(=S)Nc4ccccc4)CC3)c2c1,29.5,32.6,15.4,,,,
COc1ccc(CN2CCN(CCn3c(=O)ccc4ncc(OC)cc43)CC2)cc1,3.82,15.9,1.34,,,,
COc1cnc2ccc(=O)n(CCN3CCN(C(=O)Nc4ccccc4)CC3)c2c1,30.7,9.54,13.5,,,,
COc1ccc(CNC(=O)N2CCN(CCn3c(=O)ccc4ncc(OC)cc43)CC2)cc1,27.7,37.6,14.6,,,,
COc1cnc2ccc(=O)n(CCN3CCN(C(=S)Nc4ccc(C(C)=O)cc4)CC3)c2c1,10.7,3.16,16.4,,,,
